Measured values from patent US11730741B2, “6-chromanol derivatives for use as a medicament” (Sulfateq B.V., priority 2017, dated 2023).
Marks after values point to notes of the source that are not given here.

Legend:
[1] = test system: experimental in vivo models of COPD; conditions: cited from earlier work
[2] = screening of a range of SUL compounds including trolox; cited from earlier work
[3] = test system: isolated porcine intrarenal arteries; test: Myography: phenylephrine-induced constriction of isolated porcine intrarenal arteries; conditions: 30 min pre-incubation
Method: Porcine kidneys were obtained from a local slaughterhouse (Kroon Vlees, Gotenburgweg 30, 9723 ™ Groningen, The Netherlands) and transported on ice in normal physiological Krebs buffer containing 120 mM NaCl, 6 mM KCl, 2.5 mM CaCl2×2H2O, 1.2 mM MgCl2×6H2O, 1.2 mM NaH2PO4×H2O, 25 mM NaHCO3 and 11.4 mM D-(+)-Glucose monohydrate (all ingredients were purchased from Merck) in ultrapure water.
The renal artery tree was dissected from the kidney, cleaned of surrounding connective tissue and cut into equally-sized ring segments (2 mm in length). In some rings, endothelium denudation was performed by gentle rubbing of the intimal surface with a paper clip. Rings were mounted in organ baths as described previously (Buikema et al., 2000).
Arterial rings were washed thoroughly by replacing Krebs buffer and allowed to equilibrate for a period of 60 min under 1.4 g of resting tension before they were assessed for viability by inducing 2 subsequent constrictions with KCl (60 mM). […] After washout and stabilization, rings were treated for 30 minutes by incubation with vehicle (0.1% DMSO), SUL-121, SUL-150 or SUL-151, followed by subsequent incubation with cumulative doses of phenylephrine.
Dose-dependent constriction responses to phenylephrine (10^−8M-10^−4M) were recorded in isolated porcine intrarenal arteries. Buffer was warmed to 37° C. and aerated with 95% O2 and 5% CO2 before use.
Vascular constriction responses are expressed as percentage of final response to KCl. Data are expressed as mean±SEM. *p<0.05.
To explore the effects of 2R and 2S-(6-hydroxy-2,5,7,8-tetramethylchroman-2-yl)(piperazin-1-yl)methanone (resp. SUL-150 and SUL-151) on constriction of isolated porcine intrarenal arteries, cumulative dose response curves to the α1 adrenoceptor agonist phenylephrine (PE) were constructed in the presence and absence of SUL-150 resp SUL-151 (FIG. 1).

[4] = biological target: T1, human α1 adrenoceptor subtype A (Homo sapiens, UniProt P35348); test: Intracellular calcium assay (FLIPR Calcium 6), phenylephrine-stimulated CHO cells overexpressing α1A adrenoceptor; format: cell-based; conditions: for logEC50 of phenylephrine-induced calcium influx, α1A: 30 min at 37° C.
T1 construct: expressed in transfected cells; host or cells: CHO-K1
T1 sequence (P35348 1-466): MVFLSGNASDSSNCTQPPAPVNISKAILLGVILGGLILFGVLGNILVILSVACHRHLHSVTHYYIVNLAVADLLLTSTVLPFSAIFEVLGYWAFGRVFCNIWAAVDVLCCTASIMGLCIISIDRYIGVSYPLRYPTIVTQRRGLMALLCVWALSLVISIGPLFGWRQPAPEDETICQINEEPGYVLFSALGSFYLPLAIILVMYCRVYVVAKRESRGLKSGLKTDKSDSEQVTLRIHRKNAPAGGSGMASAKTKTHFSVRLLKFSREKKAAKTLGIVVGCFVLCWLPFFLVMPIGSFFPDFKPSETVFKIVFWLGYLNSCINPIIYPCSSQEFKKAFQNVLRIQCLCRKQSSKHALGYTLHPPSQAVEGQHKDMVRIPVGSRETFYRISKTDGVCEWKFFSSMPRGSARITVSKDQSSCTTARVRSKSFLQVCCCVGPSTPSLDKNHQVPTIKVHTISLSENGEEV
Method: (§1) CHO—K1 cells were stably transfected with a plasmid containing human α1-AR subtypes A, B and D in separate cell lines in DMEM-F12 medium with 10% FBS, 1% penicillin-streptomycin and 200 μg/mL Geneticin (G418, Invitrogen, Carlsbad, Calif.).
(§2) On the next day, CHO cells were treated with either vehicle (0.1% DMSO) or SUL-150 resp. SUL-151 for 30 min at 37° C. and stimulated with a 3-fold dilution series of PE ([…]). [Ca^2+]i was measured using the fluorescent FLIPR Calcium 6 assay kit (Molecular Devices) in immortalized CHO cells stably expressing the α1 adrenoceptor.
(§3) Initially, calcium responses induced by non-cumulative concentration series of phenylephrine were investigated using fluorescent measurements in α1A adrenoceptor-overexpressing CHO cells treated with SUL-150 and SUL-151 (FIG. 4). Fluorescent measurement data was processed and analyzed in SoftMax Pro 7 and expressed as % of baseline AUC with a 3-fold multiplier using an average of first 10 measurement points as baseline.
(§4) The “Vehicle” used in all experiments is 0.1% DMSO solution.

[5] = biological target: T2, human α1 adrenoceptor subtype B (Homo sapiens, UniProt P35368); test: Intracellular calcium assay (FLIPR Calcium 6), phenylephrine-stimulated CHO cells overexpressing α1B adrenoceptor; format: cell-based; conditions: for logEC50 of phenylephrine-induced calcium influx, α1B: 30 min at 37° C.
T2 construct: expressed in transfected cells; host or cells: CHO-K1
T2 sequence (P35368 1-520): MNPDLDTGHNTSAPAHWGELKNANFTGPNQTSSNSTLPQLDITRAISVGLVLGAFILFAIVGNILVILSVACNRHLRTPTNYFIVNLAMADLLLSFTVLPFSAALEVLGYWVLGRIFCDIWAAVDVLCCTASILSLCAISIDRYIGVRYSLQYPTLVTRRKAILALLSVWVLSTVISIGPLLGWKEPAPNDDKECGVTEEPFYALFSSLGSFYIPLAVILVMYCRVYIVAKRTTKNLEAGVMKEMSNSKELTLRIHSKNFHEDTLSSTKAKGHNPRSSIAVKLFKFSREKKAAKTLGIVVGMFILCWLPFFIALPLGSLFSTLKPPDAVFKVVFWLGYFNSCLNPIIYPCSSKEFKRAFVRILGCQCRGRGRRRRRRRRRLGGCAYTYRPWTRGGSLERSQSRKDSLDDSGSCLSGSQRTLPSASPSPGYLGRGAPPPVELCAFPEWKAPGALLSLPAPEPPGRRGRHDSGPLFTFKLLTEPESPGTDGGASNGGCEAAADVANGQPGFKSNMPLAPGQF
Method: as §1, §2, §3, §4

[6] = biological target: T3, α1A adrenoceptor (Homo sapiens, UniProt P35348); test: Radioligand displacement binding assay with [7-Methoxy-3H]-prazosin in α1A adrenoceptor transgenic CHO cells
T3 construct: expressed in transfected cells; host or cells: CHO
T3 sequence (P35348 1-466): T1 sequence (P35348 1-466)
Description: We therefore explored whether SUL-150 could directly interact with the α1 adrenoceptor as a receptor antagonist.

[7] = biological target: T4, human α1 adrenoceptor subtype D (Homo sapiens, UniProt P25100); test: Intracellular calcium assay (FLIPR Calcium 6), phenylephrine-stimulated CHO cells overexpressing α1D adrenoceptor; format: cell-based; conditions: for logEC50 of phenylephrine-induced calcium influx, α1D: 30 min at 37° C.
T4 construct: expressed in transfected cells; host or cells: CHO-K1
T4 sequence (P25100 1-572): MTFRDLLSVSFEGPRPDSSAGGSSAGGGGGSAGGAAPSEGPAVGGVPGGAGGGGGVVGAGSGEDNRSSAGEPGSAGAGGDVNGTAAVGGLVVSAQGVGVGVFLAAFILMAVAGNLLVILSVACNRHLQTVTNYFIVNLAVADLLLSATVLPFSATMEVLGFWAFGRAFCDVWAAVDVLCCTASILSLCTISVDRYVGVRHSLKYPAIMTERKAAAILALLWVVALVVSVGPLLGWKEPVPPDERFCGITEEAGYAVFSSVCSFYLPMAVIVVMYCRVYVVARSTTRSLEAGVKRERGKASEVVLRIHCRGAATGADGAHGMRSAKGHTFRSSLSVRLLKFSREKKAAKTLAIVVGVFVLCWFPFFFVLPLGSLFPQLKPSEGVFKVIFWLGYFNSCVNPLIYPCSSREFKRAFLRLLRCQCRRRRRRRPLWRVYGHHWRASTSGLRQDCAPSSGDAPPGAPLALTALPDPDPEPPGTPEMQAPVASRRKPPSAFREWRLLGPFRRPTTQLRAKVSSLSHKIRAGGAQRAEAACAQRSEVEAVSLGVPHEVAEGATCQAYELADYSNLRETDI
Method: as §1, §2, §3, §4

[8] = in the presence of 10 μM compound
[9] = in the presence of 30 μM compound
[10] = in the presence of 100 μM compound

Row | effect on PE-induced calcium transients, α1A subtype, in words [4] | logEC50 of phenylephrine-induced calcium influx, α1A ([4]; 10 μM compound) | logEC50 of phenylephrine-induced calcium influx, α1A ([4]; 30 μM compound) | logEC50 of phenylephrine-induced calcium influx, α1A ([4]; 100 μM compound) | effect on PE-induced calcium transients, α1B subtype, in words [5] | effect on PE-induced calcium transients, α1D subtype, in words [7] | Compound | logEC50 of phenylephrine-induced constriction responses [3, 8] | logEC50 of phenylephrine-induced constriction responses [3, 9] | logEC50 of phenylephrine-induced constriction responses [3, 10] | other results
1 |  |  |  |  |  |  | Cc1c(C)c2c(c(C)c1O)CCC(C)(C(=O)N1CCNCC1)O2 (racemic) [SUL-121, (6-hydroxy-2,5,7,8-tetramethylchroman-2-yl)(piperazin-1-yl)methanone] |  |  |  | LPS-induced airway neutrophilia [1]: dose-dependently reduced; LPS-induced attenuation of H2S production [1]: dose-dependently reduced; neutrophilia-related as well as unrelated ROS production [1]: dose-dependently reduced; nuclear translocation of the antioxidative response regulator Nrf2 [1]: inhibited; anti-oxidant effect [2]: very potent anti-oxidant effect
2 | shifted dose response curves rightwards | −7.62 ± 0.03 | −7.28 ± 0.03 | −6.88 ± 0.03 | shifted dose response curves rightwards | shifted dose response curves rightwards | Cc1c(C)c2c(c(C)c1O)CCC(C)(C(=O)N1CCNCC1)O2 (stereo not shown) [SUL-150, (6-hydroxy-2,5,7,8-tetramethylchroman-2-yl)(piperazin-1-yl)methanone] | −5.11 ± 0.09* | −5.06 ± 0.06* | −4.44 ± 0.09* | logEC50 of phenylephrine-induced calcium influx, α1B ([5]; 10 μM compound): −7.51 ± 0.08; logEC50 of phenylephrine-induced calcium influx, α1B ([5]; 30 μM compound): −7.24 ± 0.07; logEC50 of phenylephrine-induced calcium influx, α1B ([5]; 100 μM compound): −6.72 ± 0.08; potency in displacing the radioligand, compared to SUL-151, in words [6]: significantly more potent; logEC50 of phenylephrine-induced calcium influx, α1D ([7]; 10 μM compound): −7.37 ± 0.10; logEC50 of phenylephrine-induced calcium influx, α1D ([7]; 30 μM compound): −7.04 ± 0.06; logEC50 of phenylephrine-induced calcium influx, α1D ([7]; 100 μM compound): −6.80 ± 0.10
3 | did not affect calcium transients | −8.09 ± 0.10 | −8.09 ± 0.11 | −7.98 ± 0.10 | did not affect calcium transients | did not affect calcium transients | Cc1c(C)c2c(c(C)c1O)CC[C@@](C)(C(=O)N1CCNCC1)O2 [SUL-151, (2S)(6-hydroxy-2,5,7,8-tetramethylchroman-2-yl)(piperazin-1-yl)methanone] | −5.82 ± 0.05 | −5.89 ± 0.04 | −5.77 ± 0.04 | concentrations at which [7-Methoxy-3H]-prazosin was displaced [6]: higher than 10 μM
